Assay results taken from PMC8518411, “Discovery of GPR183 Agonists Based on an Antagonist Scaffold” (Chemmedchem, 2021).
“Also recorded” adds a separate entry of the source. Read-outs that look alike come from different tables or passages of the source.

Legend:
[1] = target: T1, GPR183 (Homo sapiens, UniProt P32249); details: dose-response, BRET
[2] = target: T1, GPR183; assay: BRET cAMP (CAMYEL biosensor) assay, antagonist mode (antagonist added 10 min prior to agonist); type: cell-based; design: hemagglutinin signal peptide (upstream of the FLAG tag) (N); expressed in transfected cells; host or cells: CHO-K1 (ATCC CCL-61), transient lipofection, modified pcDNA3 vector
[3] = target: T1, GPR183; type: cell-based; design: hemagglutinin signal peptide (upstream of the FLAG tag) (N); expressed in transfected cells; host or cells: CHO-K1 (ATCC CCL-61), transient lipofection, modified pcDNA3 vector; details: for agonist activity in calcium mobilization screen: 10 μM compound
[4] = target: T1, GPR183; assay: cell-based
[5] = calcium assay dose-response, mean of 3 experiments in duplicates, read-out: EC50 (potency)
[6] = EC50 (potency), Gαi coupling, BRET, three experiments

T1 sequence (P32249 whole entry): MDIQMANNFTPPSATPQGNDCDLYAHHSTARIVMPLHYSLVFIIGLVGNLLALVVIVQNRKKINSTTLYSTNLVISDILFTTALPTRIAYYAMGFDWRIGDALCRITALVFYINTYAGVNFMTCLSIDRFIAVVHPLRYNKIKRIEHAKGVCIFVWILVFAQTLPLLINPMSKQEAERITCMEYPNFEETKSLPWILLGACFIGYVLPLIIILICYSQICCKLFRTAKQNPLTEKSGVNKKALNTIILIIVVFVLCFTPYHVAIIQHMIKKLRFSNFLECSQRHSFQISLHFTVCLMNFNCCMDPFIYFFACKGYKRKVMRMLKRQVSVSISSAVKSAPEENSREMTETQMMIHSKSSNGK

Question: Which results are given for `O=C(COc1ccccc1)N1CCN(C(=O)c2ccccc2)CC1` [Compound 90]?
Answer: agonist activity (Gαi coupling) [1]: inactive; antagonist properties (inhibition of G protein activity induced by 1) ([2]; 10 nM of agonist 1 after preincubation with compound): did not inhibit

Question: How did the “agonist activity in calcium mobilization screen” value [3] turn out when `O=C(COc1ccc2c(c1)CCC2)N1CCN(C(=O)c2cccs2)CC1` [Compound 69] was run?
Answer: The value was “inactive”.

Question: With `O=C(CCC1CCCC1)N1CCN(C(=O)c2cc(=O)c3ccccc3o2)CC1` [Compound 13] as the compound, how does the EC50 [3, 5] read?
Answer: The EC50 was 165 nM.

Question: With `Cc1cc(Cl)ccc1OCC(=O)N1CCN(C(=O)c2ccccc2)CC1` [Compound 91] as the compound, how does the EC50 [4, 6] read?
Answer: The EC50 was 64 nM.

Question: What about the EC50 ([4]; pEC50±SE, Gαi coupling, BRET) of the same compound?
Answer: The EC50 was 63.1 nM.

Question: And the “agonist activity (Gαi coupling)” value [1]?
Answer: Its value is “partial agonist properties; also recorded: active”.

Question: For `O=C(COc1cccc2ccccc12)N1CCN(C(=O)c2ccccc2)CC1` [Compound 15], which EC50 [4, 6] is on record?
Answer: Its EC50 is 660 nM.

Question: What about the EC50 [3, 5] of the same compound?
Answer: Its EC50 is 209 nM.

Question: How did the EC50 [3, 5] turn out when `O=C(/C=C/c1cccs1)N1CCN(C(=O)c2cccc3ccccc23)CC1` [Compound 10] was run?
Answer: Its EC50 is 86 nM.

Question: Which results are given for `COc1cc(C(=O)N2CCN(C(=O)COc3ccc(Cl)cc3C)CC2)ccc1C` [Compound 16]?
Answer: EC50 [4, 6]: 51 nM; EC50 ([4]; pEC50±SE, Gαi coupling, BRET): 50.1 nM; EC50 [3, 5]: 179 nM

Question: Which EC50 [3, 5] does the source give for `O=C(COc1ccc(F)cc1Br)N1CCN(C(=O)C2COc3ccccc3O2)CC1` (centres unmarked) [Compound 17] here?
Answer: Its EC50 is 278 nM.

Question: How did the EC50 [4] turn out when `C[C@H](CCCC(C)(C)O)[C@H]1CC[C@H]2[C@@H]3[C@H](O)C=C4C[C@@H](O)CC[C@]4(C)[C@H]3CC[C@]12C` [Compound 1, 7α,25‐dihydroxycholesterol, reference compound] was run?
Answer: Its EC50 is 19 nM.

Question: And the EC50 [3]?
Answer: The EC50 was 17 nM.

Question: `Cc1nn(C)c(C)c1/C=C/C(=O)N1CCN(C(=O)C2COc3ccccc3O2)CC1` (centres unmarked) [Compound 9] was tested. Which EC50 [3, 5] did it give?
Answer: Its EC50 is 634 nM.

Question: With `O=C(COc1ccc(F)cc1Cl)N1CCN(C(=O)c2cccs2)CC1` [Compound 18] as the compound, how does the “agonist activity in calcium mobilization screen” value [3] read?
Answer: The value was “active”.

Question: What about the EC50 [3, 5] of the same compound?
Answer: Its EC50 is 740 nM.

Question: `O=C(/C=C/c1ccccc1Br)N1CCN(C(=O)Cc2ccc(F)cc2)CC1` [Compound 12] was tested. Which EC50 [3, 5] did it give?
Answer: Its EC50 is 107 nM.

Question: With `COc1cc(C(=O)N2CCN(C(=O)COc3cccc4ccccc34)CC2)ccc1C` [Compound 92] as the compound, how does the EC50 [4, 6] read?
Answer: Its EC50 is 757 nM.

Question: And the “agonist activity (Gαi coupling)” value [1]?
Answer: Its value is “partial agonist properties”.

Question: For `O=C(/C=C/c1ccccc1)N1CCN(C(=O)c2ccccc2)CC1` [Compound 88], which inhibition at 10 µM ([2]; 10 μM (highest concentration tested), 10 nM of agonist 1 after preincubation, read-out: inhibition of G protein activity induced by 1) is on record?
Answer: Its inhibition at 10 µM is 79%.
